Test results from the supplement of paper PMC10307832.

Compound: CS(=O)(=O)CCNCc1ccc(-c2ccc3ncnc(Nc4ccc(OCc5cccc(F)c5)c(Cl)c4)c3c2)o1 [Lapatinib]
Test: relative viability (nuclei count vs DMSO), 5 days (fraction); higher = more cells survive
Procedure, shortened: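 In 1536-well plates, lung cancer cell lines rested overnight at 37 °C before five library-drug doses (not always all listed), √10 apart, were pinned onto vehicle-anchored plates. Nuclei were counted with MetaXpress from 4× Hoechst images taken after 5 days without medium change. Viability compares treated-well with vehicle-well nuclei as a median over plates, and plates needed control CV below 25% plus at least one doubling to pass.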

Work on NCI-H727 yielded a relative viability (0.02 µM) of 0.839, a relative viability (0.2 µM) of 1.11 and a relative viability (0.6325 µM) of 0.778. For the same cell line, the relative viability (2 µM) was 0.776 and the relative viability (2 µM, anchor plate) was 0.796.

NCI-H838 gave a relative viability (0.02 µM) of 0.954, a relative viability (0.06325 µM) of 0.82 and a relative viability (0.2 µM) of 0.97. It also gave a relative viability (0.6325 µM) of 0.947, a relative viability (2 µM) of 0.897 and a relative viability (2 µM, anchor plate) of 0.992.

For NCI-H1299, the relative viability (0.02 µM) was 0.985, the relative viability (0.06325 µM) was 1.02 and the relative viability (0.2 µM) was 1. It also gave a relative viability (0.6325 µM) of 0.99, a relative viability (2 µM) of 1.01 and a relative viability (2 µM, anchor plate) of 0.95.

NCI-H1355 gave a relative viability (0.06325 µM) of 0.828, a relative viability (0.2 µM) of 0.938 and a relative viability (0.6325 µM) of 0.972. For the same cell line, the relative viability (2 µM) was 0.746 and the relative viability (2 µM, anchor plate) was 1.

Cell Line NCI-H1395 has a relative viability (0.06325 µM) of 0.896, a relative viability (0.2 µM) of 1.02 and a relative viability (0.6325 µM) of 0.919. For the same cell line, the relative viability (2 µM) was 0.742 and the relative viability (2 µM, anchor plate) was 1.05.

In the case of NCI-H1437, the relative viability (0.02 µM) is reported as 0.919, the relative viability (0.06325 µM) is reported as 0.988 and the relative viability (0.2 µM) is reported as 0.987. It also gave a relative viability (0.6325 µM) of 0.914, a relative viability (2 µM) of 0.918 and a relative viability (2 µM, anchor plate) of 0.794.

Cell Line NCI-H1563 has a relative viability (0.02 µM) of 1.04, a relative viability (0.06325 µM) of 0.832 and a relative viability (0.2 µM) of 0.936. The relative viability (0.6325 µM) was 0.909, the relative viability (2 µM) was 0.88 and the relative viability (2 µM, anchor plate) was 0.977.

For NCI-H1623, the relative viability (0.02 µM) was 0.856, the relative viability (0.06325 µM) was 0.649 and the relative viability (0.2 µM) was 0.576. It also gave a relative viability (0.6325 µM) of 0.728 and a relative viability (2 µM) of 0.328.

In the case of NCI-H1648, the relative viability (0.02 µM) is reported as 0.671, the relative viability (0.06325 µM) is reported as 0.667 and the relative viability (0.2 µM) is reported as 0.548. For the same cell line, the relative viability (0.6325 µM) was 0.625 and the relative viability (2 µM) was 0.392.

In the case of NCI-H1650, the relative viability (0.02 µM) is reported as 0.809, the relative viability (0.06325 µM) is reported as 0.73 and the relative viability (0.2 µM) is reported as 0.851. It also gave a relative viability (0.6325 µM) of 0.834, a relative viability (2 µM) of 0.737 and a relative viability (2 µM, anchor plate) of 0.805.

For NCI-H1651, the relative viability (0.02 µM) was 0.942, the relative viability (0.06325 µM) was 0.811 and the relative viability (0.2 µM) was 0.994. It also gave a relative viability (0.6325 µM) of 0.926, a relative viability (2 µM) of 0.989 and a relative viability (2 µM, anchor plate) of 0.827.

With NCI-H1666 the relative viability (0.02 µM) was 0.936, the relative viability (0.06325 µM) was 0.871 and the relative viability (0.2 µM) was 0.89. For the same cell line, the relative viability (0.6325 µM) was 0.862, the relative viability (2 µM) was 0.708 and the relative viability (2 µM, anchor plate) was 0.702.

For NCI-H1703, the relative viability (0.02 µM) was 0.907, the relative viability (0.06325 µM) was 0.895 and the relative viability (0.2 µM) was 0.944. The relative viability (0.6325 µM) was 1.01, the relative viability (2 µM) was 0.825 and the relative viability (2 µM, anchor plate) was 1.05.

NCI-H1734 showed a relative viability (0.06325 µM) of 0.794, a relative viability (0.2 µM) of 1.01 and a relative viability (0.6325 µM) of 1.07. The relative viability (2 µM) was 0.943 and the relative viability (2 µM, anchor plate) was 1.07.

NCI-H1755 showed a relative viability (0.02 µM) of 1.01, a relative viability (0.06325 µM) of 0.914 and a relative viability (0.2 µM) of 0.936. For the same cell line, the relative viability (0.6325 µM) was 0.967, the relative viability (2 µM) was 0.981 and the relative viability (2 µM, anchor plate) was 1.03.

Work on NCI-H1792 yielded a relative viability (0.2 µM) of 0.928, a relative viability (0.6325 µM) of 1 and a relative viability (2 µM) of 0.762. The relative viability (2 µM, anchor plate) was 0.919.

NCI-H1793 gave a relative viability (0.06325 µM) of 0.642, a relative viability (0.2 µM) of 0.732 and a relative viability (0.6325 µM) of 0.803. The relative viability (2 µM) was 0.544 and the relative viability (2 µM, anchor plate) was 0.714.

Cell Line NCI-H1915 has a relative viability (0.06325 µM) of 0.975, a relative viability (0.2 µM) of 1 and a relative viability (0.6325 µM) of 0.999. It also gave a relative viability (2 µM) of 0.977 and a relative viability (2 µM, anchor plate) of 0.996.

NCI-H1944 showed a relative viability (0.02 µM) of 0.781, a relative viability (0.06325 µM) of 0.658 and a relative viability (0.2 µM) of 0.964. For the same cell line, the relative viability (0.6325 µM) was 0.853, the relative viability (2 µM) was 0.757 and the relative viability (2 µM, anchor plate) was 0.846.

NCI-H1975 showed a relative viability (0.02 µM) of 0.968, a relative viability (0.06325 µM) of 0.8 and a relative viability (0.2 µM) of 0.904. It also gave a relative viability (0.6325 µM) of 0.936, a relative viability (2 µM) of 0.77 and a relative viability (2 µM, anchor plate) of 0.946.

NCI-H1993 showed a relative viability (0.02 µM) of 0.903, a relative viability (0.2 µM) of 0.928 and a relative viability (0.6325 µM) of 0.873. For the same cell line, the relative viability (2 µM) was 0.745 and the relative viability (2 µM, anchor plate) was 0.837.

For NCI-H2009, the relative viability (0.02 µM) was 1.01, the relative viability (0.06325 µM) was 0.978 and the relative viability (0.2 µM) was 1.02. It also gave a relative viability (0.6325 µM) of 1.01, a relative viability (2 µM) of 1 and a relative viability (2 µM, anchor plate) of 0.84.

For NCI-H2023, the relative viability (0.02 µM) was 0.796, the relative viability (0.06325 µM) was 0.744 and the relative viability (0.2 µM) was 0.926. The relative viability (0.6325 µM) was 0.998, the relative viability (2 µM) was 0.823 and the relative viability (2 µM, anchor plate) was 0.862.

Cell Line NCI-H2085 has a relative viability (0.02 µM) of 0.83, a relative viability (0.06325 µM) of 0.854 and a relative viability (0.2 µM) of 0.958. The relative viability (0.6325 µM) was 0.937, the relative viability (2 µM) was 0.859 and the relative viability (2 µM, anchor plate) was 0.773.

Cell Line NCI-H2087 has a relative viability (0.02 µM) of 0.786, a relative viability (0.06325 µM) of 0.833 and a relative viability (0.2 µM) of 1.12. For the same cell line, the relative viability (0.6325 µM) was 0.952, the relative viability (2 µM) was 0.975 and the relative viability (2 µM, anchor plate) was 0.983.

NCI-H2126 showed a relative viability (0.06325 µM) of 0.765, a relative viability (0.2 µM) of 0.946 and a relative viability (0.6325 µM) of 0.994. The relative viability (2 µM) was 0.927 and the relative viability (2 µM, anchor plate) was 0.759.

NCI-H2170 was tested, and the relative viability (0.02 µM) was 0.953, the relative viability (0.06325 µM) was 0.913 and the relative viability (0.2 µM) was 0.762. For the same cell line, the relative viability (0.6325 µM) was 0.72, the relative viability (2 µM) was 0.332 and the relative viability (2 µM, anchor plate) was 0.276.

NCI-H2228 showed a relative viability (0.02 µM) of 0.902, a relative viability (0.06325 µM) of 0.857 and a relative viability (0.2 µM) of 0.823. For the same cell line, the relative viability (0.6325 µM) was 1.04, the relative viability (2 µM) was 0.863 and the relative viability (2 µM, anchor plate) was 1.14.

In the case of NCI-H2342, the relative viability (0.02 µM) is reported as 0.742, the relative viability (0.06325 µM) is reported as 0.825 and the relative viability (0.2 µM) is reported as 0.798. For the same cell line, the relative viability (0.6325 µM) was 0.86 and the relative viability (2 µM) was 0.856.

Work on NCI-H2347 yielded a relative viability (0.02 µM) of 0.7, a relative viability (0.06325 µM) of 0.999 and a relative viability (0.2 µM) of 0.943. The relative viability (0.6325 µM) was 1.05, the relative viability (2 µM) was 0.904 and the relative viability (2 µM, anchor plate) was 0.905.

Cell Line NCI-H2405 has a relative viability (0.02 µM) of 0.674, a relative viability (0.06325 µM) of 0.83 and a relative viability (0.2 µM) of 0.971. The relative viability (0.6325 µM) was 1.01, the relative viability (2 µM) was 0.905 and the relative viability (2 µM, anchor plate) was 1.04.

For NCI-H3122, the relative viability (0.02 µM) was 0.912, the relative viability (0.06325 µM) was 0.981 and the relative viability (0.2 µM) was 0.992. For the same cell line, the relative viability (0.6325 µM) was 0.965, the relative viability (2 µM) was 1 and the relative viability (2 µM, anchor plate) was 1.03.

For PC-3 [JPC-3], the relative viability (0.06325 µM) was 1, the relative viability (0.2 µM) was 0.991 and the relative viability (0.6325 µM) was 0.977. For the same cell line, the relative viability (2 µM) was 0.755 and the relative viability (2 µM, anchor plate) was 0.46.

PC-14 gave a relative viability (0.02 µM) of 0.914, a relative viability (0.06325 µM) of 0.954 and a relative viability (0.2 µM) of 0.965. It also gave a relative viability (0.6325 µM) of 0.958, a relative viability (2 µM) of 0.644 and a relative viability (2 µM, anchor plate) of 0.343.

For RERF-LC-KJ, the relative viability (0.02 µM) was 0.992, the relative viability (0.06325 µM) was 0.88 and the relative viability (0.2 µM) was 0.905. The relative viability (0.6325 µM) was 0.826, the relative viability (2 µM) was 0.737 and the relative viability (2 µM, anchor plate) was 0.861.

Cell Line SK-LU-1 has a relative viability (0.02 µM) of 0.799, a relative viability (0.06325 µM) of 0.89 and a relative viability (0.2 µM) of 1.01. It also gave a relative viability (0.6325 µM) of 1.11, a relative viability (2 µM) of 1.03 and a relative viability (2 µM, anchor plate) of 0.85.

SK-MES-1 showed a relative viability (0.02 µM) of 0.94, a relative viability (0.06325 µM) of 0.902 and a relative viability (0.2 µM) of 0.886. It also gave a relative viability (0.6325 µM) of 0.776, a relative viability (2 µM) of 0.462 and a relative viability (2 µM, anchor plate) of 0.497.

Cell Line SW 900 has a relative viability (0.06325 µM) of 0.765, a relative viability (0.2 µM) of 0.958 and a relative viability (0.6325 µM) of 0.836. The relative viability (2 µM) was 0.712.

Cell Line SW 1573 has a relative viability (0.02 µM) of 0.952, a relative viability (0.06325 µM) of 0.896 and a relative viability (0.2 µM) of 0.992. The relative viability (0.6325 µM) was 1.06, the relative viability (2 µM) was 0.896 and the relative viability (2 µM, anchor plate) was 1.12.
